Assay in all cases: NCI-60 cell line screen, 48 h
Test [1] concerns A498.
Test [2] deals with COLO 205.
Test [3] has as its system DLD-1.
Test [4] has as its system HCC 2998.
For test [5], the system named is HOP-62.
The subject of test [6] is HOP-92.
The test system of test [7] is HT-29.
Test [8] has as its system KM-20L2.
The test system of test [9] is M14.
The subject of test [10] is Malme-3M.
Test [11] relates to NCI-H23.
In test [12] the test system is OVCAR-4.
The subject of test [13] is SK-MEL-2.
The subject of test [14] is SK-OV-3.
Test [15] deals with TK-10.
The test system of test [16] is DMS-273.
Test [17] deals with DU-145.
Test [18] relates to PC-3.
For test [19], the system named is T47D.

We go through 13 compounds from ChEMBL document CHEMBL1201862, “PubChem BioAssay data set” (2004).

SMILES strings stand for the structures.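 Where inhibition never reached the appropriate level, the endpoint shown equals the highest concentration tested. Otherwise, values were interpolated linearly from a five-concentration, 48-hour dose response in 96-well plates. GI50: concentration for 50% inhibition of growth.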 Activity calls are given as the source filed them. No stated cut-off is given here; in the data, active = GI50 up to about 1.1 µM and inactive = higher. Where only a bound is given, the exact number is not on record here.

As to `O=C1CCC2(c3ccccc3)Nc3cc(Cl)ccc3N12` (stereo not given), the GI50 in [1] is 35.4 µM (inactive); in test [2] it was 17.7 µM (inactive); in [3], 34.9 µM (inactive); in [4], 42.1 µM (inactive); in [5], 25.4 µM (inactive); in test [6] it was 13.7 µM (inactive). The GI50 in test [7] is 31.7 µM (inactive); in test [8], 30 µM (inactive); in test [9], 30.1 µM (inactive); in test [10] it was 25.8 µM (inactive); in [11], 22.3 µM (inactive); in [12], 35.2 µM (inactive). The GI50 in [13] is 22.2 µM (inactive); in [14] it was 43.8 µM (inactive); in test [15] it was 39.2 µM (inactive).
On to `COc1ccc(/C=C2\CNC/C(=C\c3ccc(OC)cc3)C2=O)cc1`, for which the GI50 in [2] is 49.4 µM (inactive); in test [3], 21 µM (inactive); in test [16] it was 23.2 µM (inactive); in test [4] it was 35.3 µM (inactive); in test [5] it was > 100 µM (inactive); in [6] it was 56.9 µM (inactive). Also, the GI50 in test [7] is 27.2 µM (inactive); in test [8], 24.3 µM (inactive); in test [9] it was > 100 µM (inactive); in test [10], > 100 µM (inactive); in test [11], 15.8 µM (inactive); in test [12], 76.9 µM (inactive). For the same compound, the GI50 in test [13], in test [14] and in test [15] was > 100 µM (inactive) throughout.
Take `ON/N=C/c1cc2c(cc1Br)OCO2`: the GI50 in test [2] is > 386 µM (inactive); in test [3], > 386 µM (inactive); in test [16], > 386 µM (inactive); in test [4], > 386 µM (inactive); in test [5], > 386 µM (inactive); in [6] it was 144 µM (inactive). Also, the GI50 in [7], in test [8], in [10], in test [11], in test [13] and in test [14] was > 386 µM (inactive) throughout. Besides, in [15], the GI50 was > 386 µM (inactive).
Regarding `O=C(C[n+]1ccccc1)NNC(=O)/C(=C/c1ccc2c(c1)OCO2)NC(=O)c1ccccc1`, the GI50 in test [1] is > 100 µM (inactive); in test [2], > 46.1 µM (inactive); in test [3], 38.2 µM (inactive); in [16] it was 28.3 µM (inactive); in test [4], > 100 µM (inactive); in [5] it was 44.4 µM (inactive). The GI50 in test [6] is > 100 µM (inactive); in [7], > 71.8 µM (inactive); in test [8], > 73.3 µM (inactive); in test [9], 48 µM (inactive); in test [10], > 81.8 µM (inactive); in test [11] it was > 79.1 µM (inactive). Besides, the GI50 in test [12] is 32.1 µM (inactive); in test [13], > 100 µM (inactive); in test [14] it was > 100 µM (inactive); in [15] it was > 100 µM (inactive).
As to `CCn1c2c(c3ccccc31)C(c1ccccc1)CC1C(=O)N(c3ccccc3)C(=O)C21` (stereo not given), the GI50 in test [1] is 5.78 µM (inactive); in test [2], > 100 µM (inactive); in test [3], 74 µM (inactive); in test [16], 51.4 µM (inactive); in [4], 59 µM (inactive); in test [5] it was 87.1 µM (inactive). The GI50 in test [6] is 26.2 µM (inactive); in [8] it was > 100 µM (inactive); in test [9], > 100 µM (inactive); in test [10] it was 24 µM (inactive); in test [11] it was > 100 µM (inactive); in test [12], > 100 µM (inactive). The GI50 was 61 µM (inactive) in test [13], 24.7 µM (inactive) in [14] and > 100 µM (inactive) in test [15].
On to `COc1cc2c(cc1OC)C1(c3ccc(Cl)cc3)ON=C(c3ccccc3)N1CS2` (stereo not given), for which the GI50 was 83.2 µM (inactive) in test [1]; > 100 µM (inactive) in test [2]; > 100 µM (inactive) in test [3]; > 100 µM (inactive) in [16]; > 100 µM (inactive) in test [4]; > 100 µM (inactive) in test [5]. For the same compound, the GI50 is 44.8 µM (inactive) in test [6]; 15.5 µM (inactive) in test [7]; > 100 µM (inactive) in test [8]; 73.8 µM (inactive) in [9]; > 100 µM (inactive) in test [10]; > 100 µM (inactive) in test [11]. Moreover, the GI50 in test [12], in test [13], in [14] and in test [15] was > 100 µM (inactive) each time.
As for `N#CC1(C#N)C=CC(=C2OCC3CCCN23)C=C1` (stereo not given), the GI50 in [1], in [2], in [3], in test [16], in test [4] and in test [5] was > 100 µM (inactive) each time. Also, the GI50 in test [6] was 96.2 µM (inactive); in [7], > 100 µM (inactive); in test [8], > 100 µM (inactive); in [9], > 100 µM (inactive); in test [10], > 100 µM (inactive); in test [12], > 100 µM (inactive). Besides, the GI50 in [13], in [14] and in test [15] was > 100 µM (inactive) in each case.
Regarding `Cc1nnc(N/N=C2\C(=O)Nc3ccccc32)n1N`, the GI50 was > 100 µM (inactive) in test [1]; 67.5 µM (inactive) in [2]; > 100 µM (inactive) in test [3]; > 100 µM (inactive) in test [16]; > 100 µM (inactive) in test [4]; > 100 µM (inactive) in [5]. Further, the GI50 in test [7], in test [8], in test [9], in [10], in [11] and in test [12] was > 100 µM (inactive) each time. Besides, the GI50 in test [13], in test [14] and in test [15] was > 100 µM (inactive) throughout.
Take `CN(C(=O)C12C3C4C1C1C2C3C41C#N)C(C)(C)C` (stereo not given): the GI50 in [1], in test [2], in test [3], in test [16], in test [4] and in test [5] was > 100 µM (inactive) in each case. The GI50 in [7], in test [8], in [9], in [10], in [11] and in test [12] was > 100 µM (inactive) in each case. The GI50 in test [13], in test [14] and in [15] was > 100 µM (inactive) throughout.
Regarding `CC(C)(C)c1cc(CCCCCCCC2(CCCCCCCc3cc(C(C)(C)C)cc(C(C)(C)C)c3)OC(COCCOCCCCCC#N)C(COCCOCCCCCC#N)O2)cc(C(C)(C)C)c1` (stereo not given), the GI50 in test [1], in test [2], in test [3], in test [16], in [4] and in test [5] was > 100 µM (inactive) in each case. In addition, the GI50 in test [6], in test [7], in test [8], in test [9], in [10] and in test [11] was > 100 µM (inactive) in each case. Besides, the GI50 in test [12], in test [13], in [14] and in [15] was > 100 µM (inactive) each time.
Regarding `Cc1cc(Br)cc(C)c1NC(=O)C(=O)C(C(=O)c1ccc(Cl)c(Cl)c1)C1OC(=O)c2ccccc21` (stereo not given), the GI50 in test [1] is 26.3 µM (inactive); in test [2] it was 47.5 µM (inactive); in test [3], 12.4 µM (inactive); in test [16], 63.2 µM (inactive); in test [4], > 100 µM (inactive); in [5], 43.6 µM (inactive). For the same compound, the GI50 in test [7] is 29.9 µM (inactive); in test [8] it was 34.6 µM (inactive); in test [9] it was > 100 µM (inactive); in test [10] it was > 100 µM (inactive); in test [11] it was 95.7 µM (inactive); in test [12], > 100 µM (inactive). The GI50 in test [13] was > 100 µM (inactive); in [14], 49.5 µM (inactive); in [15] it was 70.8 µM (inactive).
For `CN1C(c2ccccc2)CC(=NO)CC1c1ccccc1` (stereo not given), the GI50 in test [1] is 82 µM (inactive); in test [2] it was 20.2 µM (inactive); in test [3] it was 41.8 µM (inactive); in [16], 28 µM (inactive); in test [4], 97.5 µM (inactive); in test [5], > 100 µM (inactive). The GI50 in test [6] was 92.7 µM (inactive); in test [7], 35.9 µM (inactive); in test [8], 54.6 µM (inactive); in [9] it was 43 µM (inactive); in test [10], 34.8 µM (inactive); in test [11], 89.1 µM (inactive). Moreover, the GI50 in test [12] was 40.2 µM (inactive); in test [13], 53.5 µM (inactive); in test [14], > 100 µM (inactive); in test [15] it was > 100 µM (inactive).
Take `CC1=NN(C(=O)c2ccccc2O)C(=O)/C1=C/c1ccco1`: the GI50 was 2.43 µM (inactive) in test [1]; 10.5 µM (inactive) in test [2]; 0.502 µM (active) in [3]; 4.74 µM (inactive) in test [17]; > 22.8 µM (inactive) in test [4]; 0.497 µM (active) in test [5]. Moreover, the GI50 in test [6] is 7.03 µM (inactive); in test [7], 12.4 µM (inactive); in [8], 15 µM (inactive); in test [9] it was 1.93 µM (inactive); in [10] it was 11.9 µM (inactive); in test [11], 1.53 µM (inactive). The GI50 in test [12] was 3.46 µM (inactive); in test [18] it was 3.04 µM (inactive); in test [13], 5.02 µM (inactive); in [14] it was 5.7 µM (inactive); in test [19], > 100 µM (inactive); in test [15], 33.9 µM (inactive).
